Test results from patent publication US5129937A, “Pyridyloxypyrimidine derivatives, preparation process thereof, and herbicidal compositions containing the same as active ingredients” (Mitsui Toatsu Chemicals Incorporated, priority 1989, dated 1992).

Legend:
Format in all cases: in vivo
[1] = tested on: Barnyardgrass (Echinochloa crus-galli); test: Upland Soil Application Test; details: 30 g ai/a; soil application before emergence, wettable powder; observed 30 days later
Experimental: (§1) Resin-made 1/2500-are pots were filled with the soil of an upland field. After they were fertilized, soybean, corn and cotton were seeded and 2-3 cm soil covering was applied. Seeds of redroot pigweed, morningglory (Ipomoea purpurea), common lambsquarters, barnyardgrass, green foxtail, large crabgrass, foxtail meadow and johnsongrass had been uniformly mixed with the soil. They were allowed to germinate in a green house. One day later (before emergence of weeds), a wettable powder prepared from a predetermined amount of each test compound in a similar manner to the method described in Formulation Example 1 was diluted with water and then sprayed evenly at an application rate equal to 10 l per are onto the surface of the soil by means of a pressure-operated ULV (ultra low volume) sprayer. Influence to the crops and weeds were observed 30 days later. The results are shown in Table 3, in which the degree of damages of each test plant and the degree of injury to each crop were determined by comparing the air-dried weights of the test plant and crop with those of the corresponding plant and crop in untreated pots and are shown in accordance with the following standard: […]

[2] = tested on: Common lambsquarters; test: Upland Soil Application Test; details: 30 g ai/a; soil application before emergence, wettable powder; observed 30 days later
Experimental: as §1

[3] = tested on: Crabgrass (Digitaria adsendens); test: Upland Soil Application Test; details: 30 g ai/a; soil application before emergence, wettable powder; observed 30 days later
Experimental: as §1

[4] = tested on: Foxtail (Setaria viridis); test: Upland Soil Application Test; details: 30 g ai/a; soil application before emergence, wettable powder; observed 30 days later
Experimental: as §1

[5] = tested on: Foxtail meadow; test: Upland Soil Application Test; details: 30 g ai/a; soil application before emergence, wettable powder; observed 30 days later
Experimental: as §1

[6] = tested on: Johnsongrass; test: Upland Soil Application Test; details: 30 g ai/a; soil application before emergence, wettable powder; observed 30 days later
Experimental: as §1

[7] = tested on: Redroot Pigweed; test: Upland Soil Application Test; details: 30 g ai/a; soil application before emergence, wettable powder; observed 30 days later
Experimental: as §1

[8] = tested on: Corn (Zea maize); test: Upland Soil Application Test, crop injury; details: 30 g ai/a; soil application before emergence, wettable powder; observed 30 days later
Experimental: as §1

[9] = tested on: Cotton (Gossypium indicum); test: Upland Soil Application Test, crop injury; details: 30 g ai/a; soil application before emergence, wettable powder; observed 30 days later
Experimental: as §1

[10] = tested on: Soybean (Glycine max); test: Upland Soil Application Test, crop injury; details: 30 g ai/a; soil application before emergence, wettable powder; observed 30 days later
Experimental: as §1

[11] = tested on: Barnyardgrass (Echinochloa crus-galli); test: Upland Foliar Application Test; details: 30 g ai/a; foliar application at 2-3 leaf stage, emulsion; observed on the 30th day
Source text: (§2) Resin-made 1/10000-are pots were filled with the soil of an upland field. Redroot pigweed, morningglory (Ipomoea pupurea), common lambsquarters, foxtail meadow, johnsongrass, barnyardgrass, green foxtail, large crabgrass, soybean, corn and cotton were separately seeded and were allowed to germinate in a green house. When each plant grew to the stage of 2-3 leaves, an emulsion formulated from a predetermined amount of each test compound in a similar manner to the method described in Formulation Example 11 was diluted with water and then sprayed at a predetermined application rate by means of a pressure-operated ULV (ultra low volume) sprayer. The application rate was controlled at 5 l per are. Influence to the crops and weeds were observed on the 30th day after the spray of the herbicides. The results are shown in Table 4 in which the degree of damages of each test plant and the degree of injury to each crop are shown in a similar manner to Test 2.

[12] = tested on: Common lambsquarters; test: Upland Foliar Application Test; details: 30 g ai/a; foliar application at 2-3 leaf stage, emulsion; observed on the 30th day
Source text: as §2

[13] = tested on: Crabgrass (Digitaria adsendens); test: Upland Foliar Application Test; details: 30 g ai/a; foliar application at 2-3 leaf stage, emulsion; observed on the 30th day
Source text: as §2

[14] = tested on: Foxtail (Setaria viridis); test: Upland Foliar Application Test; details: 30 g ai/a; foliar application at 2-3 leaf stage, emulsion; observed on the 30th day
Source text: as §2

[15] = tested on: Foxtail meadow; test: Upland Foliar Application Test; details: 30 g ai/a; foliar application at 2-3 leaf stage, emulsion; observed on the 30th day
Source text: as §2

[16] = tested on: Johnsongrass; test: Upland Foliar Application Test; details: 30 g ai/a; foliar application at 2-3 leaf stage, emulsion; observed on the 30th day
Source text: as §2

[17] = tested on: Redroot Pigweed; test: Upland Foliar Application Test; details: 30 g ai/a; foliar application at 2-3 leaf stage, emulsion; observed on the 30th day
Source text: as §2

[18] = tested on: Arrowhead sp. (Sagittaria pygmaea); test: Submerged Soil Treatment Test (Pre-Emergence Treatment); details: 30 g ai/a, granule, observed 30 days later
Experimental: (§3) 1/5000-are Wagner pots were filled with soil. Seeds or tubers of barnyardgrass, bulrush and Sagittaria pygmaea were seeded or planted under submerged condition. Two pairs of rice seedlings (2-3 leaf stage), which had been reared in advance, were transplanted to each pot and were allowed to germinate in a green house. Each pair consisted of two rice seedlings. On day later (before emergence of weeds), each pot was treated with a granule which had been prepared by processing a predetermined amount of the test composition in accordance with a similar method to the method described in Formulation Example 9. The state of emergence of weeds and the state of injury of rice were observed 30 days later. In the table, the degrees of damages of the test plants and the degrees of injury of rice are shown in a similar manner to Example 2.

[19] = tested on: Barnyardgrass (Echinochloa crus-galli); test: as above; details: 30 g ai/a, granule, observed 30 days later
Experimental: as §3

[20] = tested on: Bulrush (Scirpus juncoides); test: as above; details: 30 g ai/a, granule, observed 30 days later
Experimental: as §3

[21] = tested on: Rice (Oryza sativa); test: Submerged Soil Treatment Test (Pre-Emergence Treatment), crop injury; details: 30 g ai/a, granule, transplanted rice, observed 30 days later
Experimental: as §3

[22] = tested on: Arrowhead sp. (Sagittaria pygmaea); test: Submerged Soil Treatment Test (Growth Stage Treatment); details: 30 g ai/a, growth stage treatment (barnyardgrass two-leaf stage), granule, observed 30 days later
Experimental: as §3, with “allowed to grow in a” for “allowed to germinate in a”, “rice seedlings. When the barnyardgrass grew to the two-leaf stage, each pot” for “rice seedlings. On day later (before emergence of weeds), each pot”, “injury of the rice are” for “injury of rice are”

[23] = tested on: Barnyardgrass (Echinochloa crus-galli); test: as above; details: 30 g ai/a, growth stage treatment (barnyardgrass two-leaf stage), granule, observed 30 days later
Experimental: as §3, with “allowed to grow in a” for “allowed to germinate in a”, “rice seedlings. When the barnyardgrass grew to the two-leaf stage, each pot” for “rice seedlings. On day later (before emergence of weeds), each pot”, “injury of the rice are” for “injury of rice are”

[24] = tested on: Bulrush (Scirpus juncoides); test: as above; details: 30 g ai/a, growth stage treatment (barnyardgrass two-leaf stage), granule, observed 30 days later
Experimental: as §3, with “allowed to grow in a” for “allowed to germinate in a”, “rice seedlings. When the barnyardgrass grew to the two-leaf stage, each pot” for “rice seedlings. On day later (before emergence of weeds), each pot”, “injury of the rice are” for “injury of rice are”

[25] = tested on: Rice (Oryza sativa); test: Submerged Soil Treatment Test (Growth Stage Treatment), crop injury; details: 30 g ai/a, growth stage treatment (barnyardgrass two-leaf stage), granule, transplanted rice, observed 30 days later
Experimental: as §3, with “allowed to grow in a” for “allowed to germinate in a”, “rice seedlings. When the barnyardgrass grew to the two-leaf stage, each pot” for “rice seedlings. On day later (before emergence of weeds), each pot”, “injury of the rice are” for “injury of rice are”

Structure (SMILES)	Herbicidal effects Barnyardgrass (Echinochloa crus-galli) [1]	Herbicidal effects Common lambquarters [2]	Herbicidal effects Crabgrass (Digitaria adsendens) [3]	Herbicidal effects Foxtail (Setaria viridis) [4]	Herbicidal effects Foxtail meadow [5]	Herbicidal effects Johnsongrass [6]	Herbicidal effects Redroot Pigweed [7]	Crop injury Corn (Zea maize) [8]	Crop injury Cotton (Gossypium indicum) [9]	Crop injury Soybean (Glycine max) [10]	Herbicidal effects Barnyardgrass (Echinochloa crus-galli) [11]	Herbicidal effects Common lambquarters [12]	Herbicidal effects Crabgrass (Digitaria adsendens) [13]	Herbicidal effects Foxtail (Setaria viridis) [14]	Herbicidal effects Foxtail meadow [15]	Herbicidal effects Johnsongrass [16]	Herbicidal effects Redroot Pigweed [17]	Herbicidal effects Arrowhead sp. (Sagittaria pygmaea) [18]	Herbicidal effects Barnyardgrass (Echinochloa crus-galli) [19]	Herbicidal effects Bulrush (Scirpus juncoides) [20]	also measured
COc1cc(OC)nc(Oc2ccccc2C=O)n1 [B, reference compound]	3 (11-40 (Medium damages))	3 (11-40 (Medium damages))	4 (6-10 (Severe damages))	4 (6-10 (Severe damages))	4 (6-10 (Severe damages))	4 (6-10 (Severe damages))	3 (11-40 (Medium damages))	5 (0-5 (Death))	5 (0-5 (Death))	5 (0-5 (Death))	4 (6-10 (Severe damages))	3 (11-40 (Medium damages))	4 (6-10 (Severe damages))	4 (6-10 (Severe damages))	4 (6-10 (Severe damages))	4 (6-10 (Severe damages))	3 (11-40 (Medium damages))	5 (0-5 (Death))	3 (11-40 (Medium damages))	3 (11-40 (Medium damages))	Crop injury Rice (Oryza sativa) [21]: 5 (0-5 (Death)); Herbicidal effects Arrowhead sp. (Sagittaria pygmaea) [22]: 4 (6-10 (Severe damages)); Herbicidal effects Barnyardgrass (Echinochloa crus-galli) [23]: 5 (0-5 (Death)); Herbicidal effects Bulrush (Scirpus juncoides) [24]: 5 (0-5 (Death)); Crop injury Rice (Oryza sativa) [25]: 5 (0-5 (Death))
COc1cc(OC)nc(Oc2cccnc2C2OCCCO2)n1 [Compound No. 8]	4 (6-10 (Severe damages))	3 (11-40 (Medium damages))	3 (11-40 (Medium damages))	3 (11-40 (Medium damages))	4 (6-10 (Severe damages))	4 (6-10 (Severe damages))	3 (11-40 (Medium damages))	0 (91-100 (No damages))	0 (91-100 (No damages))	0 (91-100 (No damages))	4 (6-10 (Severe damages))	4 (6-10 (Severe damages))	3 (11-40 (Medium damages))	4 (6-10 (Severe damages))	4 (6-10 (Severe damages))	5 (0-5 (Death))	4 (6-10 (Severe damages))	4 (6-10 (Severe damages))	5 (0-5 (Death))	4 (6-10 (Severe damages))	Crop injury Rice (Oryza sativa) [21]: 0 (91-100 (No damages)); Herbicidal effects Arrowhead sp. (Sagittaria pygmaea) [22]: 2 (41-70 (Small damages)); Herbicidal effects Barnyardgrass (Echinochloa crus-galli) [23]: 4 (6-10 (Severe damages)); Herbicidal effects Bulrush (Scirpus juncoides) [24]: 2 (41-70 (Small damages)); Crop injury Rice (Oryza sativa) [25]: 0 (91-100 (No damages))
